Measurements from patent US20260262644A1, “Antifungal compositions comprising natamycin” (Patent Nata B.V., priority 2023, published 2026).

Tests used:
Pythium ultimum [1] = experiment: Mycelium growth on PDA petri dishes containing natamycin and/or solvent; synergy by Colby equation; type: cell-based
From the text: The Colby equation (Colby, 1967. Weeds 15: 20-22) calculates the expected antifungal activity (E in %) of a combination comprising more than one active ingredients:
wherein X and Y are the observed antifungal activities (in %) of the individual active ingredients x and y, respectively. If the observed antifungal activity (O in %) of the combination exceeds the expected antifungal activity (E in %) of the combination and the synergy factor O/E is thus >1.0, the combined application of the active ingredients and solvent leads to a synergistic antifungal effect.
Agar medium was prepared by mixing in a 100 ml Duran bottle 3.9 g of potato dextrose agar (PDA; Carl-Roth GmbH+Co. KG, Karlsruhe, Germany) with 100 ml deionized water and autoclaving the Duran bottle at 120° C. for 15 minutes. After autoclaving, the solution was cooled by putting it in a 50° C. oven for about two hours. Afterward the semi-liquid PDA solution was carefully mixed with natamycin and/or solvent dosages as specified in Table 2 (left column). The medium in the Duran bottle was divided over 5 petri dishes (90×15 mm), 20 ml per petri dish by using 25 ml serological pipets (ROTILABO®; Carl-Roth). Each natamycin and/or solvent treatment was performed in five fold.
Hereafter, a circular agar mycelium plug (circular segment with a height on 5 mm of agar, fully grown with fresh Pythium ultimum mycelium, which was cut out of a petri dish with the broad side of a yellow pipette tip (Greiner Bio-One, 200 μl tips) with a diameter of 5 mm, was placed in the center of the petri dish. Hereafter the petri dishes were placed in the incubator at 22° C. Measurement of the fungal growth was done using caliper.
The solvent levels and the period after which the assessments were made are presented as specified for the different solvents are presented in Table 2 below. Synergistic calculation was done using the Colby equation. Experiment was performed in 5-fold.

Botrytis cinerea = experiment: as above; type: cell-based; conditions: 1 day after plug
[2] = Solubility of natamycin in solvents (HPLC); type: physicochemical
Protocol: The solubility of natamycin was measured in water and in the water-miscible solvent DMSO. For this, 240.6 mg and 94.3 mg of natamycin at a purity of 95% (DSM) were diluted in 50 ml of water and DMSO, respectively. The mixtures were sonicated for 30 minutes and analysed by HPLC. The HPLC system was an Agilent 1100 system. The column used was a ACE C18 RP column, 250×4.6 mm with pore size 5 μm. The mobile phase consisted of 1 g ammonium chloride and 3 g ammonium acetate dissolved in 760 mL water, and mixed with 240 mL acetonitrile and 5 mL tetrahydrofuran (THF). The speed of the flow was 3.0 ml/min and the column temperature was 25° C. The injection volume was 20 μL. Natamycin was detected with a spectrophotometer at a wavelength of 303 nm. All samples were centrifugated and filtered through 0.45 μm HPLC filters before analysis. The amount of dissolved natamycin measured in water and DMSO were 32 mg/kg and 2571 mg/kg, respectively (see Table 12).
For the water-miscible solvent Purasolv® EL, and the water-immiscible solvents BL and EHL, natamycin was added until it no longer dissolved. The mixtures were then filtered and analysed by HPLC. The amount of dissolved natamycin were 832, 211, and 271 mg/kg for EL, BL, and EHL, respectively (Table 12).

Pythium ultimum [3] = experiment: Emergence of coated spinach seeds in artificially infected soil; type: in vivo; conditions: natamycin 0.25, BL 0, thymol 0 mg/g seeds, 6 days after sowing
Protocol: Spinach seeds were placed in soil that was artificially infected (see below for method).
Soil infection was obtained via incubation of soil with infected, killed rye seeds. […] The dead rye seeds were infected with Pythium ultimum PDA plugs (circular segments of PDA, covered with freshly fully grown Pythium ultimum mycelium, which were cut out of a petri dish with the broad side of a yellow pipette tip (Greiner Bio-One, 200 μl tips) with a diameter of 5 mm). Three P. ultimum agar plugs were placed in the 500 ml jar containing the 50 g autoclaved (dead) rye seeds, which was further incubated at 22° C. for one week (16 h day light, 8 hours dark). To prepare the infected soil, potting soil (Tuinaarde, ophoog grond, purchased from Welkoop) were placed in round transparent plastic containers (9 cm in diameter, 4.5 cm high, volume 250 ml). Ten infected rye seeds, that acted as a carrier for P. ultimum, were placed in each round plastic container. To treat the spinach seeds, 77.8 μl of treatment mix (see below) was added to 1 g of seeds in a plastic container. The seeds were shaken and let to dry. Once dried, 20 treated spinach seeds were added to the inoculated soil. The rye seeds and spinach seeds were mixed into the soil, so that both seed types were homogenously distributed within the soil as well as covered by the soil. […] Emergence of the seedlings was assessed. […]

Pythium ultimum [4] = experiment: Emergence of coated radish seeds in artificially infected soil; type: in vivo; conditions: natamycin 0.05, thymol 0 mg/g seeds, 2 days after sowing
Protocol: Soil infection was obtained via incubation of soil with infected, killed rye seeds. For this, 50 g of rye seeds and 50 ml water were put into a 500 ml glass jar, which was autoclaved twice (121° C., 15 min, 15 psi). The dead rye seeds were infected with Pythium ultimum PDA plugs (circular segments of PDA, covered with freshly fully grown Pythium ultimum mycelium, which were cut out of a petri dish with the broad side of a yellow pipette tip (Greiner Bio-One, 200 μl tips) with a diameter of 5 mm). Three P. ultimum agar plugs were placed in the 500 ml jar containing the 50 g autoclaved (dead) rye seeds, which was further incubated at 22° C. for one week (16 h day light, 8 hours dark). To prepare the infected soil, potting soil (Tuinaarde, ophoog grond, purchased from Welkoop) were placed in round transparent plastic containers (9 cm in diameter, 4.5 cm high, volume 250 ml). Ten infected rye seeds, that acted as a carrier for P. ultimum, were placed in each round plastic container. […] The seeds were shaken and let to dry. […] The containers were closed with transparent lids and placed into a growth cabinet with the following growth conditions: 16 h day light, 22° C. constant temperature, 70% humidity. Emergence of the seedlings was assessed. For each treatment 3 pots were used, resulting in 3 replicates. […]

[5] = natamycin-solvent 0-12.5 ppm, 1 day after plug
[6] = natamycin-solvent 0-25 ppm, 1 day after plug
[7] = natamycin-solvent 0-250 ppm, 1 day after plug
[8] = natamycin-solvent 0-125 ppm, 2 days after plug, Tables 4-5
[9] = natamycin-solvent 0-250 ppm, 2 days after plug, Tables 4-5
[10] = natamycin-solvent 0-500 ppm, 2 days after plug, Tables 4-5
[11] = natamycin-solvent 0-12.5 ppm, 2 days after plug
[12] = natamycin-solvent 0-25 ppm, 2 days after plug
[13] = natamycin-solvent 0-250 ppm, 2 days after plug

**Q.** With `CC(O)C(=O)N(C)C` (stereo not shown) [Agnique ® AMD 3L, dimethyllactamide] as the molecule, how does the Avg infected area (Pythium ultimum [1]; [5]) read?
**A.** The Avg infected area was 1220.5 mm^2.

**Q.** And the Observed % (Pythium ultimum [1]; [5])?
**A.** The Observed % was 10.31%.

**Q.** What about the Avg infected area (Pythium ultimum [1]; [6]) of the same molecule?
**A.** Its Avg infected area is 1116.3 mm^2.

**Q.** And the Observed % (Pythium ultimum [1]; [6])?
**A.** The Observed % was 17.97%.

**Q.** What about the Avg infected area (Pythium ultimum [1]; [7]) of the same molecule?
**A.** Its Avg infected area is 1278.7 mm^2.

**Q.** What about the Observed % (Pythium ultimum [1]; [7]) of the same molecule?
**A.** Its Observed % is 6.04%.

**Q.** With `CC(O)C(=O)N(C)C` (stereo not shown) [DMAC, dimethyllactamide] as the molecule, how does the Avg infected area (Pythium ultimum [1]; [5]) read?
**A.** Its Avg infected area is 1251.6 mm^2.

**Q.** What about the Observed % (Pythium ultimum [1]; [5]) of the same molecule?
**A.** The Observed % was 6.73%.

**Q.** And the Avg infected area (Pythium ultimum [1]; [7])?
**A.** Its Avg infected area is 1316.1 mm^2.

**Q.** What about the Observed % (Pythium ultimum [1]; [7]) of the same molecule?
**A.** The Observed % was 1.93%.

**Q.** Which Avg infected area (Pythium ultimum [1]; [8]) does the source give for `C[S+](C)[O-]` [DMSO, Dimethyl Sulfoxide] here?
**A.** The Avg infected area was 5247.969 mm2.

**Q.** And the Avg infected area (Pythium ultimum [1]; [9])?
**A.** Its Avg infected area is 5238.583 mm2.

**Q.** What about the Avg infected area (Pythium ultimum [1]; [10]) of the same molecule?
**A.** The Avg infected area was 5129.162 mm2.

**Q.** And the Avg infected area (Pythium ultimum [1]; natamycin-solvent 0-1000 ppm, 2 days after plug, Tables 4-5)?
**A.** Its Avg infected area is 4475.89 mm2.

**Q.** With `CCCCC(CC)COC(=O)[C@H](C)O` (stereo partly drawn) [EHL, 2-ethylhexyl L-lactate] as the molecule, how does the Avg infected area (Botrytis cinerea; natamycin-solvent 0-0.5 ppm) read?
**A.** Its Avg infected area is 1740.142 mm2.

**Q.** And the Observed % (Botrytis cinerea; natamycin-solvent 0-0.5 ppm)?
**A.** The Observed % was 11.74%.

**Q.** What about the Avg infected area (Pythium ultimum [1]; natamycin-solvent 0-125 ppm, 1 day after plug, Tables 6-7) of the same molecule?
**A.** Its Avg infected area is 290.1899 mm2.

**Q.** What about the Avg infected area (Pythium ultimum [1]; natamycin-solvent 0-250 ppm, 1 day after plug, Tables 6-7) of the same molecule?
**A.** The Avg infected area was 34.78 mm2.

**Q.** What does the source list for `CCOC(=O)[C@H](C)O` [EL, ethyl L-lactate]?
**A.** Avg infected area (Botrytis cinerea; natamycin-solvent 0-0.5 ppm): 1390.376 mm2; Observed % (Botrytis cinerea; natamycin-solvent 0-0.5 ppm): 29.48%; Avg infected area (Pythium ultimum [1]; natamycin-solvent 0-12.5 ppm, 1 day after plug, Tables 6-7): 625.9774 mm2; Avg infected area (Pythium ultimum [1]; natamycin-solvent 0-25 ppm, 1 day after plug, Tables 6-7): 574.2358 mm2; Avg infected area (Pythium ultimum [1]; natamycin-solvent 0-50 ppm, 1 day after plug, Tables 6-7): 619.378 mm2

**Q.** Which Avg infected area (Botrytis cinerea; natamycin-solvent 0-0.5 ppm) does the source give for `CCO` [EtOH, Ethanol] here?
**A.** Its Avg infected area is 1602.867 mm2.

**Q.** And the Observed % (Botrytis cinerea; natamycin-solvent 0-0.5 ppm)?
**A.** The Observed % was 18.70%.

**Q.** What about the Avg infected area (Pythium ultimum [1]; [8]) of the same molecule?
**A.** The Avg infected area was 5488.804 mm2.

**Q.** And the Avg infected area (Pythium ultimum [1]; [9])?
**A.** The Avg infected area was 5286.064 mm2.

**Q.** And the Avg infected area (Pythium ultimum [1]; [10])?
**A.** The Avg infected area was 4366.453 mm2.

**Q.** For `C=CCCCCCCCC(=O)N(C)C` [Hallcomid ® 1025], which Avg infected area (Pythium ultimum [1]; [11]) is on record?
**A.** Its Avg infected area is 3666.2 mm^2.

**Q.** And the Observed % (Pythium ultimum [1]; [11])?
**A.** Its Observed % is 30.89%.

**Q.** And the Avg infected area (Pythium ultimum [1]; [12])?
**A.** The Avg infected area was 2118.6 mm^2.

**Q.** What about the Observed % (Pythium ultimum [1]; [12]) of the same molecule?
**A.** Its Observed % is 60.06%.

**Q.** And the Avg infected area (Pythium ultimum [1]; [13])?
**A.** The Avg infected area was 0 mm^2.

**Q.** And the Observed % (Pythium ultimum [1]; [13])?
**A.** Its Observed % is 100.00%.

**Q.** Which results are given for `C[C@@H]1C/C=C/C=C/C=C/C=C/[C@H](O[C@@H]2O[C@H](C)[C@@H](O)[C@H](N)[C@@H]2O)C[C@@H]2O[C@](O)(C[C@@H](O)C[C@H]3O[C@@H]3/C=C/C(=O)O1)C[C@H](O)[C@H]2C(=O)O` [Natamycin]?
**A.** Natamycin concentration (amount of dissolved natamycin) ([2]; in 2-ethylhexyl L-lactate (Purasolv EHL)): 271 mg/kg; Natamycin concentration (amount of dissolved natamycin) ([2]; in DMSO): 2571 mg/kg; Natamycin concentration (amount of dissolved natamycin) ([2]; in ethyl L-lactate (Purasolv EL)): 832 mg/kg; Natamycin concentration (amount of dissolved natamycin) ([2]; in n-butyl L-lactate (Purasolv BL)): 211 mg/kg; Natamycin concentration (amount of dissolved natamycin) ([2]; in water): 32 mg/kg; Avg germination (Pythium ultimum [3]): 18.3; Observed % (Pythium ultimum [3]): 37.50%; Avg infected area (Botrytis cinerea; natamycin-solvent 0.5-0 ppm): 1183.171 mm2; Observed % (Botrytis cinerea; natamycin-solvent 0.5-0 ppm): 39.99%; Avg germination (Pythium ultimum [4]): 41.7; Observed % (Pythium ultimum [4]): 13.64%; Avg infected area (Pythium ultimum [1]; natamycin-solvent 25-0 ppm, 2 days after plug, Tables 4-5): 4397.811 mm2; Avg infected area (Pythium ultimum [1]; natamycin-solvent 50-0 ppm, 1 day after plug, Tables 6-7): 563.7967 mm2; Avg infected area (Pythium ultimum [1]; natamycin-solvent 50-0 ppm, 2 days after plug, Tables 4-5): 4891.484 mm2; Avg infected area (Pythium ultimum [1]; natamycin-solvent 100-0 ppm, 2 days after plug, Tables 4-5): 4435.301 mm2; Avg infected area (Pythium ultimum [1]; natamycin-solvent 200-0 ppm, 2 days after plug, Tables 4-5): 5059.918 mm2

**Q.** What does the source list for Xylene?
**A.** Avg infected area (Pythium ultimum [1]; [12]): 5371.2 mm^2; Observed % (Pythium ultimum [1]; [12]): 1.35%
